Here are results for 1 molecule from BindingDB's records for doi:10.1016/j.ejmech.2021.113604 (China Pharmaceutical University, 2021).

The term koff denotes the first-order rate constant of dissociation.

For one assay, the target named is Endoplasmin (Canis lupus familiaris, UniProt P41148). Kind of assay: Binding affinity to GST-tagged dog GRP94 (69 to 337 residues) expressed in Escherichia coli BL21 (DE3) assessed as dissociation constant at 0.37 to 10 uM measured by BLI assay.
The target of assay [1] is Heat shock protein HSP 90-alpha (Homo sapiens, UniProt P07900). Kind of assay: Binding affinity to His-tagged human N-terminal HSP90alpha (1 to 236 residues) expressed in Escherichia coli BL21 (DE3) assessed as dissociation constant at 1.1 to 30 uM measured by BLI assay.

Endoplasmin, sequence (P41148 whole entry, the tested form may be a part): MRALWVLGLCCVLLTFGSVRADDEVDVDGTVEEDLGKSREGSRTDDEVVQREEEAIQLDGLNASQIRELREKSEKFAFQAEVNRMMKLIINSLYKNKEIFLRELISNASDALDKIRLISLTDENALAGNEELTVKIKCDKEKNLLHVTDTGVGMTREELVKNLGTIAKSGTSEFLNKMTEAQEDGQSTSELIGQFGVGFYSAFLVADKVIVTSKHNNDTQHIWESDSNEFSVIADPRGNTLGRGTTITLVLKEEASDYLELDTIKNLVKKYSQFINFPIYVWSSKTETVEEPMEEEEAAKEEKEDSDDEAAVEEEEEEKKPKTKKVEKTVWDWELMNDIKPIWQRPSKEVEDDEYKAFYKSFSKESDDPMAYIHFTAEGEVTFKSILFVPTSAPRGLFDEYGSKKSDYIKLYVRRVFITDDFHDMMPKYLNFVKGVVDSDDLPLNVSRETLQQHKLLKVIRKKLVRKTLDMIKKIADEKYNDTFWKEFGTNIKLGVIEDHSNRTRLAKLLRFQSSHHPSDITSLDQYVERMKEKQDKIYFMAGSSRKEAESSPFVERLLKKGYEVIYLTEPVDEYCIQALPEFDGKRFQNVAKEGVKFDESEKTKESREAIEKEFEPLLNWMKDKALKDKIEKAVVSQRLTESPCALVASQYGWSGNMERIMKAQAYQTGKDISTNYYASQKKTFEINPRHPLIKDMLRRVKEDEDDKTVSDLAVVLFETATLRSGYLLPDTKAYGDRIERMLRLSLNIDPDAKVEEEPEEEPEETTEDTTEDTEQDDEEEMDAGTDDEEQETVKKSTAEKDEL

On to `CCCCC#Cc1ccc(N[C@H]2CC[C@H](O)CC2)c(C(N)=O)c1`, for which the figures for the koff (on Endoplasmin; in assay [1]) were 0.0284 s⁻¹ and 0.114 s⁻¹, respectively.
